The target of one assay is B-Raf (Homo sapiens, UniProt P15056). In words: B-Raf Accelerated MEK ATPase assay (BRAMA), Method A or B. In kind it is biochemical. Put shortly: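 ADP production, initiated by catalytic activated Raf with unphosphorylated MEK, is followed by NADH oxidation through a PK/LDH coupled system. Method B differs from the kinetic Method A by a single end-point read and 150 nM final MEK.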

The next assay deals with Colo205 tumor cells. In words: Cell growth inhibition assay (CellTiter-Glo), Colo205. The following applies: Homo sapiens, COLO 205, 72 h; 3 days incubation. It is filed as cell-based, Human. Put shortly:
(§1)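 Readout was CellTiter-Glo luminescence (total ATP, surrogate for cell number) after 3-day exposure at 37° C, 5% CO2 to 1:3 serial compound dilutions in 0.2% final DMSO. Seeding was 500 cells/well; IC50 derived by 4-parameter fit relative to vehicle-treated wells.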
On the technique in general: Cellular ATP, detected with luciferase, serves as a proxy for viable cell number.

In the next assay the test system is SK-MEL-28 tumor cells. In words: Cell growth inhibition assay (CellTiter-Glo), SK-MEL-28. In kind it is cell-based, Human. The following applies: Homo sapiens, SK-MEL-28, 72 h; 3 days incubation. Put shortly:
as §1

A further assay concerns A375P F11s tumor cells. In words: Cell growth inhibition assay (CellTiter-Glo), A375P F11s. It is filed as cell-based, Human. The following applies: Homo sapiens. The method in brief: (§2)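 Cells seeded at 500/well (HN5 and HT-29 in high-glucose DMEM/10% FBS; A375P F11s in RPMI/10% FBS with pyruvate; SK-MEL-3 in McCoy's 5A/15% FBS), then exposed next day to 1:3 serial compound dilutions (0.2% DMSO) for 3 days at 37° C. CellTiter-Glo luminescence measured ATP; IC50 derived by 4-parameter fit.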

In another assay the test system is HT-29 tumor cells. In words: Cell growth inhibition assay (CellTiter-Glo), HT-29. In kind it is cell-based, Human. The conditions noted are these: Homo sapiens. Put shortly:
as §2

Where [1] appears, read: Method B: final MEK 150 nM, single end point read.

Sequence of B-Raf (P15056 whole entry): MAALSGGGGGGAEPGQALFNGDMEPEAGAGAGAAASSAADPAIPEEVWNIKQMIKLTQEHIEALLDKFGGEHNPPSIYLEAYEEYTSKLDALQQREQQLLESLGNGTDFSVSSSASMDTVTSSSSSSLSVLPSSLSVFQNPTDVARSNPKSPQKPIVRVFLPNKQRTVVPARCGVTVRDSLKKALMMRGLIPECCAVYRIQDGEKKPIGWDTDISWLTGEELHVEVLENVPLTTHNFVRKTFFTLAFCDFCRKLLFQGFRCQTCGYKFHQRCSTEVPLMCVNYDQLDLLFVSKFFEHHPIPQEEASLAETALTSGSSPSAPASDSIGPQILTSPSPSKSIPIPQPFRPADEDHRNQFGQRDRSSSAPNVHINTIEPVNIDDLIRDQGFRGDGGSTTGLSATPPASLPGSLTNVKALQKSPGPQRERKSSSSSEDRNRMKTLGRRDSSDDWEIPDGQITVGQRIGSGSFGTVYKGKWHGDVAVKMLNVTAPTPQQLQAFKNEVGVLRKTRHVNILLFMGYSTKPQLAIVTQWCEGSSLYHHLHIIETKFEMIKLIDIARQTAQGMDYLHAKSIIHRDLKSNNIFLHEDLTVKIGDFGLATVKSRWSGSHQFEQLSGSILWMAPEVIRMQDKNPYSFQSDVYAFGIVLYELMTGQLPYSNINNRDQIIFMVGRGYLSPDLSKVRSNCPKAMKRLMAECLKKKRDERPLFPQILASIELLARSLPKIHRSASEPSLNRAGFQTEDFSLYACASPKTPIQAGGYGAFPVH

The term IC50 denotes the concentration needed to halve the response being measured. Low values mean higher potency, high ones lower potency. For the compound `CC(C)c1nc(-c2cccc(NS(=O)(=O)c3c(F)cccc3F)c2)c(-c2ccnc(Nc3cc(F)c(N4CCN(CCS(C)(=O)=O)CC4)cc3F)n2)s1` [Example 87], the IC50 against B-Raf (setting [1]) was less than 100 nM; in the assay with Colo205 tumor cells, less than 100 nM; in the assay on SK-MEL-28 tumor cells, less than 100 nM; in the assay on A375P F11s tumor cells, less than 100 nM; with HT-29 tumor cells, 100 to 1000 nM.
Take `CC(=O)N1CCN(c2ccc(Nc3nccc(-c4sc(C(C)C)nc4-c4cccc(NS(=O)(=O)c5cc(F)ccc5F)c4)n3)cn2)CC1` [Example 96]: the IC50 against B-Raf (setting [1]), in the assay on Colo205 tumor cells, in the assay with SK-MEL-28 tumor cells, with A375P F11s tumor cells and in the assay on HT-29 tumor cells was less than 100 nM in each case.
Regarding `CC(C)c1nc(-c2cccc(NS(=O)(=O)c3ccccc3)c2)c(-c2ccnc(Nc3ccc(F)c(N4CCN(CCS(C)(=O)=O)CC4)c3)n2)s1` [Example 73], the concentration for half-maximal inhibition (IC50) against B-Raf (setting [1]) was less than 100 nM; with Colo205 tumor cells, less than 100 nM; with SK-MEL-28 tumor cells it was less than 100 nM; in the assay with A375P F11s tumor cells, less than 100 nM; in the assay with HT-29 tumor cells, 100 to 1000 nM.
As to `CC(C)c1nc(-c2cc(F)cc(NS(=O)(=O)c3ccc(F)cc3)c2)c(-c2ccnc(Nc3ccc(N4CCOCC4)c(F)c3)n2)s1` [Example 83], the half-inhibitory concentration (IC50) was less than 100 nM against B-Raf (setting [1]); 100 to 1000 nM in the assay with Colo205 tumor cells; 100 to 1000 nM with SK-MEL-28 tumor cells; 100 to 1000 nM in the assay with A375P F11s tumor cells; more than 1000 nM with HT-29 tumor cells.
As for `CCc1nc(-c2cccc(NS(=O)(=O)c3ccccc3)c2)c(-c2ccnc(Nc3ccc(N4CCOCC4)c(F)c3)n2)s1` [Example 4], the half-maximal inhibitory concentration (IC50) against B-Raf (Method A), with Colo205 tumor cells, in the assay on SK-MEL-28 tumor cells, in the assay on A375P F11s tumor cells and in the assay with HT-29 tumor cells was 100 to 1000 nM each time.
As for `CC(=O)N1CCc2cc(Nc3nccc(-c4sc(C(C)C)nc4-c4cccc(NS(=O)(=O)c5ccccc5)c4)n3)ccc21` [Example 71], the IC50 on B-Raf (setting [1]), with Colo205 tumor cells, in the assay on SK-MEL-28 tumor cells, with A375P F11s tumor cells and in the assay with HT-29 tumor cells was less than 100 nM throughout.
For the compound `CC(C)c1nc(-c2cc(F)cc(NS(=O)(=O)c3c(F)cccc3F)c2)c(-c2ccnc(Nc3ccc(N4CCOCC4)c(F)c3)n2)s1` [Example 85], the IC50 is less than 100 nM against B-Raf (setting [1]); less than 100 nM in the assay on Colo205 tumor cells; less than 100 nM in the assay on SK-MEL-28 tumor cells; less than 100 nM in the assay on A375P F11s tumor cells; 100 to 1000 nM in the assay with HT-29 tumor cells.
As for `Cc1cc(N2CCC(N3CCCCC3)CC2)ccc1Nc1nccc(-c2sc(C(C)C)nc2-c2cccc(NS(=O)(=O)c3c(F)cccc3F)c2)n1` [Example 91], the half-inhibitory concentration (IC50) on B-Raf (setting [1]) is less than 100 nM; with Colo205 tumor cells, less than 100 nM; with SK-MEL-28 tumor cells it was less than 100 nM; with A375P F11s tumor cells it was 100 to 1000 nM; with HT-29 tumor cells, more than 1000 nM.
Take `CC(C)c1nc(-c2cccc(NS(=O)(=O)c3c(F)cccc3F)c2)c(-c2ccnc(Nc3cccc(N4CCN(C)CC4)c3)n2)s1` [Example 81]: the IC50 on B-Raf (setting [1]) is less than 100 nM; with Colo205 tumor cells it was less than 100 nM; in the assay on SK-MEL-28 tumor cells, less than 100 nM; in the assay on A375P F11s tumor cells, less than 100 nM; with HT-29 tumor cells it was 100 to 1000 nM.
For `CC(C)c1nc(-c2cccc(NS(=O)(=O)c3c(F)cccc3F)c2)c(-c2ccnc(Nc3ccc(N4CCCNCC4)nc3)n2)s1` [Example 82], the IC50 on B-Raf (setting [1]) is less than 100 nM; with Colo205 tumor cells, less than 100 nM; in the assay with SK-MEL-28 tumor cells, less than 100 nM; in the assay on A375P F11s tumor cells it was less than 100 nM; in the assay on HT-29 tumor cells, 100 to 1000 nM.
`COc1cc(N2CCN(CCF)CC2)ccc1Nc1nccc(-c2sc(C(C)C)nc2-c2cccc(NS(=O)(=O)c3c(F)cccc3F)c2)n1` [Example 79]: the IC50 was less than 100 nM on B-Raf (setting [1]); 100 to 1000 nM in the assay with Colo205 tumor cells; 100 to 1000 nM with SK-MEL-28 tumor cells; 100 to 1000 nM in the assay with A375P F11s tumor cells; 100 to 1000 nM with HT-29 tumor cells.
For `CCc1nc(-c2cccc(NS(=O)(=O)c3ccccc3)c2)c(-c2ccnc(Nc3ccc(OC)c(N4CCN(CCS(C)(=O)=O)CC4)c3)n2)s1` [Example 5, N-[3-(2-Ethyl-5-{2-[(4-(methyloxy)-3-{4-[2-(methylsulfonyl)ethyl]-1-piperazinyl}phenyl)amino]-4-pyrimidinyl}-1,3-thiazol-4-yl)phenyl]benzenesulfonamide], the IC50 against B-Raf (Method A), with Colo205 tumor cells, in the assay on SK-MEL-28 tumor cells, with A375P F11s tumor cells and in the assay with HT-29 tumor cells was less than 100 nM in each case.
For the compound `CC(C)c1nc(-c2cccc(NS(=O)(=O)c3c(F)cccc3F)c2)c(-c2ccnc(Nc3ccc(N4CC[C@@H](O)C4)nc3)n2)s1` [Example 89], the half-inhibitory concentration (IC50) against B-Raf (setting [1]) is less than 100 nM; in the assay with Colo205 tumor cells, less than 100 nM; in the assay with SK-MEL-28 tumor cells it was less than 100 nM; with A375P F11s tumor cells it was less than 100 nM; in the assay with HT-29 tumor cells, more than 1000 nM.
For the compound `CC(C)c1nc(-c2cccc(NS(=O)(=O)c3c(F)cccc3F)c2)c(-c2ccnc(Nc3ccc(N4CCCN(CCS(C)(=O)=O)CC4)nc3)n2)s1` [Example 88], the half-inhibitory concentration (IC50) against B-Raf (setting [1]), in the assay with Colo205 tumor cells, in the assay on SK-MEL-28 tumor cells, in the assay on A375P F11s tumor cells and with HT-29 tumor cells was less than 100 nM throughout.
Regarding `CC(C)c1nc(-c2cccc(NS(=O)(=O)c3c(F)cccc3F)c2)c(-c2ccnc(Nc3ccc(N4CCN(CCO)CC4)nc3)n2)s1` [Example 80], the IC50 against B-Raf (setting [1]) is less than 100 nM; with Colo205 tumor cells it was less than 100 nM; in the assay on SK-MEL-28 tumor cells, less than 100 nM; in the assay with A375P F11s tumor cells it was less than 100 nM; in the assay on HT-29 tumor cells, 100 to 1000 nM.
Turning to `CC(C)c1nc(-c2cccc(NS(=O)(=O)c3c(F)cccc3F)c2)c(-c2ccnc(Nc3ccc(N4CCN(C(C)C)CC4)cc3O)n2)s1` [Example 78], the half-inhibitory concentration (IC50) on B-Raf (setting [1]) is less than 100 nM; with Colo205 tumor cells, less than 100 nM; with SK-MEL-28 tumor cells, less than 100 nM; with A375P F11s tumor cells, less than 100 nM; in the assay on HT-29 tumor cells it was more than 1000 nM.
On to `CC(C)c1nc(-c2cccc(NS(=O)(=O)c3ccccc3)c2)c(-c2ccnc(Nc3ccc(N4CCOCC4)cn3)n2)s1` [Example 92], for which the IC50 is less than 100 nM against B-Raf (setting [1]); 100 to 1000 nM with Colo205 tumor cells; 100 to 1000 nM with SK-MEL-28 tumor cells; 100 to 1000 nM in the assay with A375P F11s tumor cells; more than 1000 nM in the assay on HT-29 tumor cells.
As for `C=C(C)c1nc(-c2cccc(NS(=O)(=O)c3c(F)cccc3F)c2)c(-c2ccnc(Nc3ccc(N4CCN(CCF)CC4)c(F)c3)n2)s1` [Example 93], the IC50 on B-Raf (setting [1]) was less than 100 nM; in the assay on Colo205 tumor cells it was less than 100 nM; in the assay with SK-MEL-28 tumor cells, 100 to 1000 nM; with A375P F11s tumor cells it was 100 to 1000 nM; in the assay with HT-29 tumor cells, more than 1000 nM.
In the case of `CC(C)c1nc(-c2cccc(NS(=O)(=O)c3ccccc3)c2)c(-c2ccnc(Nc3ccc(CC4CCN(CCS(C)(=O)=O)CC4)c(F)c3)n2)s1` [Example 72], the IC50 at B-Raf (setting [1]) is less than 100 nM; with Colo205 tumor cells it was 100 to 1000 nM; with SK-MEL-28 tumor cells it was 100 to 1000 nM; with A375P F11s tumor cells, 100 to 1000 nM; in the assay with HT-29 tumor cells, 100 to 1000 nM.
Consider `CC(C)c1nc(-c2cc(F)cc(NS(=O)(=O)c3c(F)cccc3F)c2)c(-c2ccnc(Nc3ccc(N4CCOCC4)nc3)n2)s1` [Example 84], for which the half-inhibitory concentration (IC50) on B-Raf (setting [1]), in the assay on Colo205 tumor cells, with SK-MEL-28 tumor cells, in the assay on A375P F11s tumor cells and in the assay with HT-29 tumor cells was less than 100 nM throughout.
Turning to `CCc1nc(-c2cccc(NS(=O)(=O)c3ccccc3)c2)c(-c2ccnc(Nc3ccc(N4CCN(C(C)=O)CC4)nc3)n2)s1` [Example 3, N-{3-[5-(2-{[6-(4-Acetyl-1-piperazinyl)-3-pyridinyl]amino}-4-pyrimidinyl)-2-ethyl-1,3-thiazol-4-yl]phenyl}benzenesulfonamide], the IC50 on B-Raf (setting [1]) was less than 100 nM; in the assay with Colo205 tumor cells it was less than 100 nM; in the assay on SK-MEL-28 tumor cells, less than 100 nM; in the assay with A375P F11s tumor cells it was less than 100 nM; in the assay with HT-29 tumor cells, 100 to 1000 nM.
Take `CC(C)c1nc(-c2cccc(NS(=O)(=O)c3ccccc3)c2)c(-c2ccnc(Nc3ccc(N4CCN(CCS(C)(=O)=O)CC4)c(F)c3F)n2)s1` [Example 74]: the concentration for half-maximal inhibition (IC50) on B-Raf (setting [1]) was less than 100 nM; in the assay on Colo205 tumor cells it was 100 to 1000 nM; in the assay on SK-MEL-28 tumor cells, 100 to 1000 nM; with A375P F11s tumor cells, 100 to 1000 nM; in the assay with HT-29 tumor cells, more than 1000 nM.
Take `CC(C)c1nc(-c2ccc(F)c(NS(=O)(=O)c3c(F)cccc3F)c2)c(-c2ccnc(Nc3ccc(N4CCN(CCS(C)(=O)=O)CC4)c(F)c3)n2)s1` [Example 95]: the 50% inhibitory concentration (IC50) at B-Raf (setting [1]) was less than 100 nM; with Colo205 tumor cells it was less than 100 nM; in the assay with SK-MEL-28 tumor cells it was less than 100 nM; with A375P F11s tumor cells it was 100 to 1000 nM; with HT-29 tumor cells it was more than 1000 nM.

Values taken from US20110319392A1, “Thiazole Sulfonamide And Oxazole Sulfonamide Kinase Inhibitors” (priority 2009, published 2011).
